# From ChEMBL document CHEMBL1139942, “Geldanamycin derivatives and neuroprotective effect on cultured P19-derived neurons” (Bioorg Med Chem Lett, 2007)
# pIC50: −log10 of the molar value. Activity calls are given as the source filed them. The calls are words filed in the database; no cut-off is given here.
# Legend:
# [1] = Cell viability of mouse P19 derived neurons at 1 nM by XTT reduction assay relative to control; type: functional
# [2] = Neuroprotective activity against paclitaxel-induced toxicity in mouse P19 derived neurons assessed as cell viability at 1 nM; type: functional; conditions: read-out: Activity
# [3] = tested on: P19; test: Cytotoxicity against mouse P19 cells after 18 hrs; type: functional, cell-based; conditions: P19, 18 h
# [4] = Neurotoxicity against mouse P19 derived neurons after 18 hrs; type: toxicity
# [5] = Therapeutic index, ratio of neurotoxic IC50 to neuroprotective activity for mouse P19 derived neurons
# [6] = organism: Mus musculus; test: Neuroprotective activity against paclitaxel-induced toxicity in mouse P19 derived neurons assessed as cell viability at 1 nM after 18 hrs by phase contrast microscope; type: functional
# [7] = organism: Mus musculus; test: Neuroprotective activity against vinblastine-induced toxicity in mouse P19 derived neurons assessed as cell viability at 1 nM after 18 hrs by phase contrast microscope; type: functional
structure (smiles),measurement,setting,value
CO[C@H]1/C=C\C=C(/C)C(=O)NC2=CC(=O)C(N)=C(C[C@@H](C)C[C@H](OC)[C@H](O)[C@@H](C)/C=C(\C)[C@@H]1OC(N)=O)C2=O,Activity,[1],85%
CO[C@H]1/C=C\C=C(/C)C(=O)NC2=CC(=O)C(O)=C(C[C@@H](C)C[C@H](OC)[C@H](O)[C@@H](C)/C=C(\C)[C@@H]1OC(N)=O)C2=O,Activity,[1],50%
C=CCNC1=C2C[C@@H](C)C[C@H](OC)[C@H](O)[C@@H](C)/C=C(\C)[C@H](OC(N)=O)[C@@H](OC)/C=C\C=C(/C)C(=O)NC(=CC1=O)C2=O,Activity,[1],66%
CO[C@H]1/C=C\C=C(/C)C(=O)NC2=CC(=O)C(NCc3ccccc3)=C(C[C@@H](C)C[C@H](OC)[C@H](O)[C@@H](C)/C=C(\C)[C@@H]1OC(N)=O)C2=O,Activity,[1],44%
CO[C@H]1/C=C\C=C(/C)C(=O)Nc2cc(O)c(O)c(c2O)C[C@@H](C)C[C@H](OC)[C@H](O)[C@@H](C)/C=C(\C)[C@@H]1OC(N)=O,Activity,[1],43%
CCOC1=C2C[C@@H](C)C[C@H](OC)[C@H](O)[C@@H](C)/C=C(\C)[C@H](OC(N)=O)[C@@H](OC)/C=C\C=C(/C)C(=O)NC(=C(OCC)C1=O)C2=O,Activity,[1],0%
CNC1=C2C[C@@H](C)C[C@H](OC)[C@H](O)[C@@H](C)/C=C(\C)[C@H](OC(N)=O)[C@@H](OC)/C=C\C=C(/C)C(=O)NC(=C(NC)C1=O)C2=O,Activity,[1],46%
CCCOC1=C2C[C@@H](C)C[C@H](OC)[C@H](O)[C@@H](C)/C=C(\C)[C@H](OC(N)=O)[C@@H](OC)/C=C\C=C(/C)C(=O)NC(=CC1=O)C2=O,viability at 0.001 µM,[2],100%
same,pIC50,[3],6.70
same,IC50 at 18 h,[4],6700 nM
same,Activity,[1],121%
COC1=C2C[C@@H](C)C[C@H](OC)[C@H](O)[C@@H](C)/C=C(\C)[C@H](OC(N)=O)[C@@H](OC)/C=C\C=C(/C)C(=O)NC(=C(OC)C1=O)C2=O,selectivity ratio,[5],> 10000
same,viability at 0.001 µM,[2],120%
same,Activity,[6],Active
same,Activity,[7],Active
same,pIC50,[3],< 5.00
same,IC50 at 18 h,[4],> 10000 nM
same,Activity,[1],108%
COC1=C2C[C@@H](C)C[C@H](OC)[C@H](O)[C@@H](C)/C=C(\C)[C@H](OC(N)=O)[C@@H](OC)/C=C\C=C(/C)C(=O)NC(=C(N)C1=O)C2=O,Activity,[1],91%
CO[C@H]1/C=C\C=C(/C)C(=O)NC2=C(NCCCO)C(=O)C(NCCCO)=C(C[C@@H](C)C[C@H](OC)[C@H](O)[C@@H](C)/C=C(\C)[C@@H]1OC(N)=O)C2=O,Activity,[1],0%
CCCNC1=C2C[C@@H](C)C[C@H](OC)[C@H](O)[C@@H](C)/C=C(\C)[C@H](OC(N)=O)[C@@H](OC)/C=C\C=C(/C)C(=O)NC(=C(NCCC)C1=O)C2=O,Activity,[1],0%
CCCNC1=C2C[C@@H](C)C[C@H](OC)[C@H](O)[C@@H](C)/C=C(\C)[C@H](OC(N)=O)[C@@H](OC)/C=C\C=C(/C)C(=O)NC(=CC1=O)C2=O,Activity,[1],0%
CCNC1=C2C[C@@H](C)C[C@H](OC)[C@H](O)[C@@H](C)/C=C(\C)[C@H](OC(N)=O)[C@@H](OC)/C=C\C=C(/C)C(=O)NC(=CC1=O)C2=O,Activity,[1],49%
CO[C@H]1/C=C\C=C(/C)C(=O)NC2=CC(=O)C(OCc3ccccc3)=C(C[C@@H](C)C[C@H](OC)[C@H](O)[C@@H](C)/C=C(\C)[C@@H]1OC(N)=O)C2=O,viability at 0.001 µM,[2],100%
same,pIC50,[3],6.30
same,IC50 at 18 h,[4],> 10000 nM
same,Activity,[1],111%
CCOC1=C2C[C@@H](C)C[C@H](OC)[C@H](O)[C@@H](C)/C=C(\C)[C@H](OC(N)=O)[C@@H](OC)/C=C\C=C(/C)C(=O)NC(=CC1=O)C2=O,viability at 0.001 µM,[2],100%
same,pIC50,[3],7.00
same,IC50 at 18 h,[4],1600 nM
same,Activity,[1],113%
COC1=C2C[C@@H](C)C[C@H](OC)[C@H](O)[C@@H](C)/C=C(\C)[C@H](OC(N)=O)[C@@H](OC)/C=C\C=C(/C)C(=O)NC(=CC1=O)C2=O [GELDANAMYCIN],selectivity ratio,[5],> 1800
same,viability at 0.001 µM,[2],100%
same,pIC50,[3],7.00
same,IC50 at 18 h,[4],1800 nM
same,Activity,[1],121%
